# Measured values from patent US20190322676A1, “CERAMIDE GALACTOSYLTRANSFERASE INHIBITORS FOR THE TREATMENT OF DISEASE” (BioMarin Pharmaceutical Inc., priority 2016, published 2019).
# Counter-ions that a name gives are not always drawn.
# Target: T1, human CGT (ceramide galactosyltransferase), CHO/CGT lysate (Homo sapiens, UniProt Q16880)
# T1 construct: Full-length human CGT cDNA was cloned into the BamH1/Xho1 site of pcDNA3.1 (+); expressed in transfected cells; host or cells: Chinese hamster ovary (CHO) cells; lysate prepared with M-PER
# T1 sequence (Q16880 21-541): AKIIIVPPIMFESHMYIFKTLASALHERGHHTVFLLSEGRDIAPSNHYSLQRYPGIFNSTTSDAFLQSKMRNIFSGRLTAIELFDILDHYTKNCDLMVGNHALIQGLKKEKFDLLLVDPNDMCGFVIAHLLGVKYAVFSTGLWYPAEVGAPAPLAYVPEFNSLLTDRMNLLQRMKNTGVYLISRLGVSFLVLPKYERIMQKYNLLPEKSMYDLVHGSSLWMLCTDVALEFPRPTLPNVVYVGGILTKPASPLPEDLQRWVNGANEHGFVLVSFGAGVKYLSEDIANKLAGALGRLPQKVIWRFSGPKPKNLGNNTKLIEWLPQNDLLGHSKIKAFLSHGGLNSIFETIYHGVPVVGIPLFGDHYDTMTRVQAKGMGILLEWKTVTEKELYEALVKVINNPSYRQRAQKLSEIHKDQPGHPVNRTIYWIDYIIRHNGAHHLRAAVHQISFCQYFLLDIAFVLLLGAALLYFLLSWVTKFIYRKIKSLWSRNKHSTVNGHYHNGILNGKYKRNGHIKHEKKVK
# Experiment: CGT enzyme assay, RapidFire/MS/MS readout with 0.01% Tween added (Table 1 ranges with two asterisks **)
# Assay type: biochemical
# Details: CGT enzymatic assay; range with two asterisks (**): RapidFire/MS/MS method with 0.01% Tween added
# Protocol: Full-length human CGT cDNA was cloned into the BamH1/Xho1 site of pcDNA3.1 (+) mammalian expression vector (V90-20, Invitrogen, Carlsbad, Calif.) and the plasmid was transfected into Chinese hamster ovary (CHO) cells. Lysate was prepared using M-PER (Mammalian Protein Extraction Reagent, ThermoFisher Scientific, Grand Island, N.Y.) in the presence of a protease inhibitor cocktail (P8340, Sigma, Saint Louis, Mo.). Each 100 mm dish (100% confluent, approximately 1×10^7 cells) was lysed with 250 μL of M-PER containing protease inhibitors. Protein concentration was determined using a Pierce BCA protein assay kit (ThermoFisher Scientific). Four micrograms of CHO/CGT lysate was incubated with various concentrations of a compound (0.001 μM-50 μM) in 10 mM HEPES (pH 7.2) containing 35 μM dioleoylphosphatidylcholine, 5 mM MgCl2, 5 mM MnCl2, 1% BSA, 15 mM KCl, 1 mM EGTA, 8 mM CHAPS, 10 μM C6-NBD-dihydro-ceramide and 17.5 μM UDP-galactose in a final reaction volume of 20 μL at 37° C. for 1 hour. The final concentration of DMSO was 0.5% in both compound-treated and mock-treated samples. Tween 80 (0.01%) was optionally added to the reaction mixture to help solubilize the compounds. Each individual reaction was diluted with 80 μL of methanol:acetronitrile (1:3) containing 5 μM N-docdecanoyl-NBD-galactosylceramide (internal standard) to stop the reaction. 200 μL H2O:acetonitile (1:1) was added to precipitate the protein. After sufficient mixing, the plates were centrifuged at 2469 g for 38 minutes, 200 μL of supernatant was transferred to a LC/MS 96-deep well plate and a second spin was performed at 2469 g for 10 minutes. The final supernatant was injected in triplicate for RapidFire/MS/MS analysis.
# Quantitative Analysis Using the RapidFire/MS/MS Method:
# The quantitative analysis of C6-NBD-dihydro-ceramide and C6-NBD-dihydro-galactosylceramide was performed on a Rapid Fire 360 high-throughput mass spectrometry system (Agilent Technologies, Palo Alto, Calif.) coupled with a API4000^+ triple quadrupole mass spectrometer (Applied Biosystems, Concord, Ontario, Canada). RapidFire software packages, including RapidFire Control panel, RapidFire UI and RapidFire Integrator (Agilent Technologies), were used to control the RapidFire instrument and to process data. Analyst 1.6.2 software packages (Applied Biosystems) were used to control the MS system and acquire MS data. […] of sample was loaded on a micro-scale C4 solid-phase extraction (SPE) cartridge (Agilent Technologies) and salts were removed using water supplemented with 0.1% formic acid at the flow rate of 1.5 mL/min for 3 sec. C6-NBD-dihydro-ceramide and C6-NBD-dihydro-galactosylceramide were co-eluted into the mass spectrometer using acetonitrile containing 0.1% formic acid at the flow rate of 1.0 mL/min for 3 sec. The total cycle time of one injection was 8 secs. The MS/MS detection was performed in ESI negative mode. The mass transition of C6-NBD-dihydro-galactosylceramide was m/z 752.6→678.6 using a −40 V collision energy, the mass transition of C6-NBD-dihydro-ceramide was m/z 590.6→115.8 using a −40 V collision energy and the mass transition of N-docdecanoyl-NBD-galactosylceramide was m/z 820.9→746.3 using a −45 V collision energy.
# The C6-NBD-dihydro-galactosylceramide reading was normalized first by dividing the peak area of C6-NBD-dihydro-galactosylceramide by the peak area of the internal standard, N-docdecanoyl-NBD-galactosylceramide. IC50 values (see Table 1, where data ranges with one asterix (*) correspond to analysis using the RapidFire/MS/MS method, and data ranges with two asterixes (**) correspond to analysis using the RapidFire/MS/MS method with 0.01% Tween added) were generated from sigmoidal dose-response curves (variable slope) with GraphPad Prism software (GraphPad Software, Inc., San Diego, Calif.) using the normalized peak areas of C6-NBD-dihydro-galactosylceramide or the percent inhibition of C6-NBD-dihydro-galactosylceramide accumulation relative to DMSO control. […]
row,Structure (SMILES),IC50
1,"COc1cc(C(F)(F)[C@H](NS(=O)(=O)c2ccc(OCC3CCCCC3)cc2)C(=O)N2CCC(N)CC2)ccc1-c1ccc(Cl)cc1 [Compound 146-1, (R)—N-(3-(4-aminopiperidin-1-yl)-1-(4′-chloro-2-methoxy-[1,1′-biphenyl]-4-yl)-1,1-difluoro-3-oxopropan-2-yl)-4-(cyclohexylmethoxy) benzenesulfonamide trifluoroacetate]",< 1 µM
2,"O=C([C@@H](NS(=O)(=O)c1ccc2cc(OC3CCCC3)ccc2c1)C(F)(F)c1ccc(-c2ccc(Cl)cc2)cc1)N1C[C@H]2CNC[C@H]2C1 [Compound 147-1, N—((R)-1-(4′-chloro-[1,1′-biphenyl]-4-yl)-1,1-difluoro-3-((3aR,6aS)-hexahydropyrrolo[3,4-c]pyrrol-2(1H)-yl)-3-oxopropan-2-yl)-6-(cyclopentyloxy) naphthalene-2-sulfonamide trifluoroacetate]",< 1 µM
3,"O=C([C@H](NS(=O)(=O)c1ccc2cc(OC3CCCC3)ccc2c1)C(F)(F)c1ccc(-c2ccc(Cl)cc2)cc1)N1C[C@H]2CNC[C@H]2C1 [Compound 147-2, N—((S)-1-(4′-chloro-[1,1′-biphenyl]-4-yl)-1,1-difluoro-3-((3aR,6aS)-hexahydropyrrolo[3,4-c]pyrrol-2(1H)-yl)-3-oxopropan-2-yl)-6-(cyclopentyloxy)naphthalene-2-sulfonamide trifluoroacetate]",10 to 30 µM
4,"N[C@H]1CCN(C(=O)[C@@H](NS(=O)(=O)c2ccc3cc(OC4CCCC4)ccc3c2)C(F)(F)c2ccc(-c3ccc(Cl)cc3)cc2)C1 [Compound 148-1, N—((R)-3-((S)-3-aminopyrrolidin-1-yl)-1-(4′-chloro-[1,1′-biphenyl]-4-yl)-1,1-difluoro-3-oxopropan-2-yl)-6-(cyclopentyloxy)naphthalene-2-sulfonamide trifluoroacetate]",1 to 10 µM
5,"N[C@H]1[C@@H]2CC[C@H]1CN(C(=O)[C@@H](NS(=O)(=O)c1ccc3cc(OC4CCCC4)ccc3c1)C(F)(F)c1ccc(Cl)cc1)C2 [Compound 150-1, N—((R)-3-((1R,5S,8R)-8-amino-3-azabicyclo[3.2.1]octan-3-yl)-1-(4-chlorophenyl)-1,1-difluoro-3-oxopropan-2-yl)-6-(cyclopentyloxy)naphthalene-2-sulfonamide trifluoroacetate]",< 1 µM

# Results, then the molecule that gave them:
row,IC50,Structure (SMILES)
1,1 to 10 µM,"COc1cc(C(F)(F)[C@@H](NS(=O)(=O)c2ccc(OCC3CCCCC3)cc2)C(=O)N2CCC(N)CC2)ccc1-c1ccc(Cl)cc1 [Compound 146-2, (S)—N-(3-(4-aminopiperidin-1-yl)-1-(4′-chloro-2-methoxy-[1,1′-biphenyl]-4-yl)-1,1-difluoro-3-oxopropan-2-yl)-4-(cyclohexylmethoxy)benzenesulfonamide trifluoroacetate]"
2,10 to 30 µM,"N[C@H]1CCN(C(=O)[C@H](NS(=O)(=O)c2ccc3cc(OC4CCCC4)ccc3c2)C(F)(F)c2ccc(-c3ccc(Cl)cc3)cc2)C1 [Compound 148-2, N—((S)-3-((S)-3-aminopyrrolidin-1-yl)-1-(4′-chloro-[1,1′-biphenyl]-4-yl)-1,1-difluoro-3-oxopropan-2-yl)-6-(cyclopentyloxy)naphthalene-2-sulfonamide trifluoroacetate]"
3,< 1 µM,"N[C@@H]1CCN(C(=O)[C@@H](NS(=O)(=O)c2ccc3cc(OC4CCCC4)ccc3c2)C(F)(F)c2ccc(-c3ccc(Cl)cc3)cc2)C1 [Compound 149-1, N—((R)-3-((R)-3-aminopyrrolidin-1-yl)-1-(4′-chloro-[1,1′-biphenyl]-4-yl)-1,1-difluoro-3-oxopropan-2-yl)-6-(cyclopentyloxy)naphthalene-2-sulfonamide trifluoroacetate]"
4,1 to 10 µM,"N[C@@H]1CCN(C(=O)[C@H](NS(=O)(=O)c2ccc3cc(OC4CCCC4)ccc3c2)C(F)(F)c2ccc(-c3ccc(Cl)cc3)cc2)C1 [Compound 149-2, N—((S)-3-((R)-3-aminopyrrolidin-1-yl)-1-(4′-chloro-[1,1′-biphenyl]-4-yl)-1,1-difluoro-3-oxopropan-2-yl)-6-(cyclopentyloxy) naphthalene-2-sulfonamide trifluoroacetate]"
